In patent publication US8093386B2, “Thioaryl substituted inhibitors of zinc proteases and their use” (Bracco Imaging S.p.A, priority 2006, dated 2012) one finds IC50 data, which are given here for 6 compounds.

SMILES strings stand for the structures.

Assay type in all cases: biochemical
Experiment [1] concerns the target T1, MMP-2 (Homo sapiens, UniProt P08253).
T1 construct: gift of Prof; Gillian Murphy (Oncology Department, Cambridge University, UK)
T1 sequence (P08253 110-660): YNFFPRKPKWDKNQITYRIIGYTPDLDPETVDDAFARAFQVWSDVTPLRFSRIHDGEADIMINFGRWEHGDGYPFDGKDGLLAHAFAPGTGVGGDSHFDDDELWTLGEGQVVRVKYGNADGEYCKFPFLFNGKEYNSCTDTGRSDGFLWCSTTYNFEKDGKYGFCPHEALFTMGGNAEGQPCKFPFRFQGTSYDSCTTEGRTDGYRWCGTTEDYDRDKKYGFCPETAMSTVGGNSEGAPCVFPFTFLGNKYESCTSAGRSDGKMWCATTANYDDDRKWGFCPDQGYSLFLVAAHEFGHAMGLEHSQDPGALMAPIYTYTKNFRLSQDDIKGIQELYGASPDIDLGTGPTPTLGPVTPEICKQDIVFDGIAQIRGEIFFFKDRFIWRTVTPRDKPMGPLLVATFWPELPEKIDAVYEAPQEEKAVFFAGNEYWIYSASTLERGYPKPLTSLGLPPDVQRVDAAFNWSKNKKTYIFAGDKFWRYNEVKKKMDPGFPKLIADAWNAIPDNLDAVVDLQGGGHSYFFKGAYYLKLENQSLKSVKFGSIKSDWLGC
The experiment in a line: In vitro fluorometric inhibition assay of MMPs: MMP-2. On the procedure: (§1) Analysis of the In Vitro Inhibition Activity of Zinc Metalloproteinases: In Vitro Inhibition of MMMPs
(§2) The human recombinant Progelatinase A (pro-MMP-2), B (pro-MMP-9), MMP-14cd and MMP-16cd, were provided by Prof. Gillian Murphy (Oncology Department, Cambridge University, UK); pro-MMP-1, pro-MMP-3, pro-MMP-7, pro-MMP-8, pro-MMP-13 and pro-MMP-14 were bought from Calbiochem. The proenzymes were activated immediately before the use with p-aminophenylmercuric acetate (APMA 2 mM for 1 h at 37° C. for MMP-1, MMP-2 and MMP-8, 1 mM for 1 h at 37° C. for MMP-9 and MMP-7, 1 mM for 30 min at 37° C. for MMP-13). Pro-MMP-14 and pro-MMP-3 were activated with trypsin 5 μg/ml for 15 min at 37° C. followed the soybean trypsin inhibitor (SBTI) 23 μg/ml for pro-MMP-14 and 62 μg/ml for pro-MMP-3. The catalytic domains of MMP-14 and MMP-16 were utilized without activation.
(§3) For the assay measurements, the stock solutions of the inhibitor (DMSO, 100 mM) were further diluted up to 7 different concentrations (0.01 nM-300 μM) for each MMP, in the buffer for the fluorometric assay (FAB: Tris 50 mM, pH=7.5, NaCl 150 mM, CaCl2 10 mM, Brij 35 0.05% and DMSO 1%). The solutions of activated enzyme (final concentrations 2.9 nM for MMP-2, 2.7 nM for MMP-9, 2.4 nM for MMP-7, 1 nM for MMP-14 and MMP-3, 1.5 nM for MMP-8 and MMP-16cd, 0.84 nM for MMP-14cd, 0.66 nM for MMP-13 and 0.20 nM for MMP-1) and of inhibitor were incubated in the assay buffer for 4 h at 25° C. After the addition of solution of fluorogenic substrate 200 μM Mca-Arg-Pro-Lys-Pro-Val-Glu-Nva-Trp-Arg-Lys(Dnp)-NH2 (Sigma) for MMP-3 and Mca-Lys-Pro-Leu-Gly-Leu-Dpa-Ala-Arg-NH2 (Bachem) for all the other enzymes in DMSO (final concentration 2 μM), the hydrolysis were monitored every 15 sec for 20 min, recording the increase in fluorescence (λex=325 nm, λem=400 nm) with a Molecular Device SpectraMax Gemini XS plates reader. The assays were made in triplicate in a total volume of 200 μl per well on 96 well-plates for microtitolation (Corning, black, NBS). The control wells were without inhibitor.
(§4) The inhibition activity of MMP was expressed in relative fluorescence unit (RFU). The percentage of inhibition was calculated using control reactions without inhibitor.
(§5) IC50 was determined using the formula: Vi/Vo=1/(1+[I]/IC50), wherein Vi is the initial rate of the substrate scission in presence of the inhibitor at the concentration [I] and Vo is the initial rate in the absence of inhibitor. The results were analyzed with the SoftMax Pro software and the GraFit software.

Experiment [2] addresses T2, MMP-1 (Homo sapiens, UniProt P03956).
T2 construct: purchased Calbiochem
T2 sequence (P03956 100-469): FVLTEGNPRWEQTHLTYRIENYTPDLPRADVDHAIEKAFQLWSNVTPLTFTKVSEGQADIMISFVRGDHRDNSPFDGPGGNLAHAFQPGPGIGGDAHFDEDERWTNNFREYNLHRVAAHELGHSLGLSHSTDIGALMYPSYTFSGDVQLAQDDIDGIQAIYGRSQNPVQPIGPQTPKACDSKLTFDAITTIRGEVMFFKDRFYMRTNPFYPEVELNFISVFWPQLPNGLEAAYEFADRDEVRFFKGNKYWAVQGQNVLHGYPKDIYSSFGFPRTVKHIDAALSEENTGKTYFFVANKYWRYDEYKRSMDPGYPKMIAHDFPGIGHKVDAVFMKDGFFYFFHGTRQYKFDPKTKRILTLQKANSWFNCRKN
The experiment in a line: In vitro fluorometric inhibition assay of MMPs: MMP-1. The settings on record: Table I. Here is the method: as §1, §2, §3, §4, §5

Experiment [3] concerns the target T3, MMP-9 (Homo sapiens, UniProt P14780).
T3 construct: gift of Prof; Gillian Murphy (Oncology Department, Cambridge University, UK)
In words: In vitro fluorometric inhibition assay of MMPs: MMP-9. On the procedure: as §1
The human recombinant Progelatinase A (pro-MMP-2), B (pro-MMP-9), MMP-14cd and MMP-16cd, were provided by Prof. Gillian Murphy (Oncology Department, Cambridge University, UK); pro-MMP-1, pro-MMP-3, pro-MMP-7, pro-MMP-8, pro-MMP-13 and pro-MMP-14 were bought from Calbiochem. […] Pro-MMP-14 and pro-MMP-3 were activated with trypsin 5 μg/ml for 15 min at 37° C. followed the soybean trypsin inhibitor (SBTI) 23 μg/ml for pro-MMP-14 and 62 μg/ml for pro-MMP-3. The catalytic domains of MMP-14 and MMP-16 were utilized without activation.
as §3, with “The solutions of activated enzyme (final concentrations 2.9 nM for MMP-2, 2.7 nM for MMP-9, 2.4 nM for MMP-7, 1 nM for MMP-14 and MMP-3, 1.5 nM for MMP-8 and MMP-16cd, 0.84 nM for MMP-14cd, 0.66 nM for MMP-13 and 0.20 nM for MMP-1) and of inhibitor were incubated in the assay buffer for 4 h at 25° C.” left out
as §4, §5

Experiment [4] has as its target T4, TACE (ADAM17) (Homo sapiens, UniProt P78536).
T4 construct: purchased CalBiochem
The experiment in a line: Inhibition of ADAMs: activity on TACE (ADAM17), fluorometric assay. On the procedure:
Inhibition of ADAMS: Activity on TACE (ADAM17) Method 1: (only TACE)
The human recombinant TACE, from CalBiochem, was dissolved in FAB buffer (Tris 50 mM, pH=7.5, NaCl 150 mM, CaCl2 10 mM, Brij 35 0.05% and DMSO 1%) at the concentration of 200 μg/mL (2.85 μM) as stock solution. For the assay measurements, the stock solutions of the inhibitor (DMSO, 100 mM) were further diluted up to seven different concentrations (0.01 nM-300 μM) in FAB buffer. A solution of the enzyme (final concentration 3 nM) and the solutions of the inhibitors at different concentrations were incubated in FAB for 20 minutes at 25° C. After the addition of a 200 μM solution of the substrate Mca-Lys-Pro-Leu-Gly-Leu-Dap(Dnp)-Ala-Arg-NH2 (Bachem) in DMSO (final concentration 2 μM), the hydrolysis was monitored for 20 min, recording the increase in fluorescence (λex=325 nm, λem=400 nm) using a Molecular Device SpectraMax Gemini XS plates reader. The assays were made in triplicate in a total volume of 200 μl per well, on 96 well microplates (Corning, black, NBS). The inhibition activity of TACE was expressed in relative fluorescent units (RFU). The percentage of inhibition was calculated based in respect to the blanks control without inhibitor. The IC50 was determined following the equation: Vi/Vo=1/(1+[I]/IC50), where Vi is the initial rate of the hydrolysis of the substrate in the presence of the inhibitor at the concentration [I] and Vo is the initial rate in the absence of inhibitor. The results were analysed using the software SoftMax Pro and GraFit.

T4 sequence (P78536 215-671 limits assumed): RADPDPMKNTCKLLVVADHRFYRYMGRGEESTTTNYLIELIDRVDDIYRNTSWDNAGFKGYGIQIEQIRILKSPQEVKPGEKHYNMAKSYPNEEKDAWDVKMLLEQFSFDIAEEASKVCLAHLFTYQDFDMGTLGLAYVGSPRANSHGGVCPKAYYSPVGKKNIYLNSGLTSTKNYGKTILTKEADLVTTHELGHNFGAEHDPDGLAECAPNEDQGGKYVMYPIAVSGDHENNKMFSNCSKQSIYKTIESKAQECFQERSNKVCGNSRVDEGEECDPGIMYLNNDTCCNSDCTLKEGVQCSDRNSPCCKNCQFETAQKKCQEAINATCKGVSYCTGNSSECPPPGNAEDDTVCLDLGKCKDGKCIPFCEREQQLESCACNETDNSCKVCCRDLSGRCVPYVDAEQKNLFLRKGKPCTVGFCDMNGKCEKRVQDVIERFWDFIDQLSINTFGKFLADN
T3 sequence (P14780 107-707 limits assumed): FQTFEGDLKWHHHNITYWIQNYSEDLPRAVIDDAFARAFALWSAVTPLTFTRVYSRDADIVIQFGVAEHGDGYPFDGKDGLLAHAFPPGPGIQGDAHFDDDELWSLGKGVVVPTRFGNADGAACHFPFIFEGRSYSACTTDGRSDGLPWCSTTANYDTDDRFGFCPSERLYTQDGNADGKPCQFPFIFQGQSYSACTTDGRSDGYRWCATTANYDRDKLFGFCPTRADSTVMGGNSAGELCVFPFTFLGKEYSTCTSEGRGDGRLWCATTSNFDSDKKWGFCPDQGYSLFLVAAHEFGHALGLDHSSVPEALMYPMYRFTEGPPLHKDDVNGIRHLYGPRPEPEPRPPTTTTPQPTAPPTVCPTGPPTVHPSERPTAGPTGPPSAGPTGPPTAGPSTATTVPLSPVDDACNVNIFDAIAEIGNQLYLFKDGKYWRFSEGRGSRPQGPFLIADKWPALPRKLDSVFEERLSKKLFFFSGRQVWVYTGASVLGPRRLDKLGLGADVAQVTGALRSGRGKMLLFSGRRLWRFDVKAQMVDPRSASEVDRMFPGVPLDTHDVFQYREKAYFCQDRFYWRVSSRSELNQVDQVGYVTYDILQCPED

The IC50 is the concentration needed to halve the response being measured. High values mean a need for much substance, low ones inhibition by little substance. On to `O=C(O)Cc1ccccc1Sc1ccc(-c2ccccc2)cc1`, for which the IC50 in experiment [1] (Table I, cells without (*)) amounted to 0.33 ± 0.026 µM; in experiment [2] (cells without (*)), 334 ± 5.7 µM; in experiment [3] (Table I, cells without (*)), 6.7 ± 0.3 µM.

For the compound `O=C(O)CC(C(=O)O)c1ccccc1Sc1ccc(-c2ccccc2)cc1` (stereo not shown), the IC50 came to 11 ± 1.1 µM in experiment [1] (Table I, cells without (*)); 189 ± 28 µM in experiment [2] (cells without (*)); 95 ± 8.7 µM in experiment [3] (Table I, cells without (*)).

With `O=C(Cc1ccccc1Sc1ccc(-c2ccccc2)cc1)NO` [Compound 21a], the IC50 in experiment [1] (Table I, cells marked (*)) was 0.0411 ± 0.0014 µM; in experiment [2] (cells marked (*)) it was 171 ± 5 µM; in experiment [4] (Table IV), 13.4 ± 1.93 µM; in experiment [3] (Table I, cells marked (*)) it was 1.2 ± 0.2 µM.

`COc1ccc(Sc2ccccc2CC(=O)NO)cc1` [Compound 21b, N-hydroxy-2-(2-(4-methoxyphenylthio)phenyl)acetamide]: the IC50 stood at 6.2 ± 0.3 µM in experiment [1] (Table IV) and 10.2 ± 0.67 µM in experiment [4] (Table IV).

With `CC#CCOc1ccc(Sc2ccccc2CC(=O)NO)cc1` [Compound 21c, 2-(2-(4-(but-2-iniloxy)phenylthio)phenyl)-N-hydroxyacetamide], the IC50 in experiment [1] (text b547) stood at 1.45 ± 0.033 µM; in experiment [4] (text b547), 0.462 ± 0.021 µM.

Turning to `COc1ccc(-c2ccc(Sc3ccccc3CC(=O)NO)cc2)cc1` [Compound 24, N-hydroxy-2-(2-(4′-methoxybiphenyl-4-ylthio)phenyl)acetamide], the IC50 in experiment [1] (Table I, cells marked (*)) amounted to 0.0068 ± 0.00053 µM; in experiment [1] (Table IV), 0.0068 ± 0.00053 µM; in experiment [4] (Table IV) it was 46.2 ± 5.34 µM; in experiment [3] (Table I, cells marked (*)), 0.12 ± 0.017 µM; in experiment [3] (Table IV), 0.12 ± 0.017 µM.
